Source: patent US10618918B2, “Substituted boronic acids as antimicrobials” (priority 2015, dated 2020)
pKi: −log10 of the molar value. Where two headings read alike, the source gives them in different places.

Legend:
[1] = system: KP1004 KPC-2; assay: Biapenem potentiation (MPC@1), strain KP1004 KPC-2; format: cell-based; conditions: minimum BLI concentration inhibiting growth with biapenem 1 μg/mL; tested up to 40 μg/mL
Description: (§1) Biapenem was present in the test medium at 1 μg/mL. […] Table 3 summarizes the BLI potency of biapenem potentiation (MPC@1) for two strains overexpressing class A (KPC) and class D (OXA-48) carbapenemases. Biapenem MIC for each strain is also shown.

[2] = system: KP1086 OXA-48; assay: Biapenem potentiation (MPC@1), strain KP1086 OXA-48; format: cell-based; conditions: minimum BLI concentration inhibiting growth with biapenem 1 μg/mL; tested up to 40 μg/mL
Description: as §1

[3] = system: AB1053 OXA-72; assay: Meropenem potentiation (MPC@8), strain AB1053 OXA-72; format: cell-based, Acinetobacter baumannii; conditions: minimum BLI concentration inhibiting growth with meropenem 8 μg/mL; tested up to 20 μg/mL
[4] = system: AB1054 OXA-23; assay: Meropenem potentiation (MPC@8), strain AB1054 OXA-23; format: cell-based, Acinetobacter baumannii; conditions: minimum BLI concentration inhibiting growth with meropenem 8 μg/mL; tested up to 20 μg/mL
[5] = biological target: T1, purified class A, C and D enzymes (β-lactamases) (Acinetobacter baumannii, UniProt Q9L4P2); assay: biochemical; format: biochemical; conditions: purified OXA-23; nitrocefin (NCF) as reporter substrate
T1 construct: rows headed: Ki (OXA-23, NCF), uM; other: purified OXA-23; nitrocefin (NCF) as reporter substrate
T1 sequence (Q9L4P2 whole entry): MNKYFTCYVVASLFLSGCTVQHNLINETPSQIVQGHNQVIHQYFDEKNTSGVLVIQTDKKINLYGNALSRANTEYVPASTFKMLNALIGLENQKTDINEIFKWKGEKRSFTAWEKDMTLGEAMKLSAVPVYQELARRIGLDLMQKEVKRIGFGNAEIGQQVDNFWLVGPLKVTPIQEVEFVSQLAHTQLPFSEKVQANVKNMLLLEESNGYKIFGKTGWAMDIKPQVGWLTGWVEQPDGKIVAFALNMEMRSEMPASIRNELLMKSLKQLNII

[6] = biological target: purified class A, C and D enzymes (β-lactamases) (Enterobacter cloacae, UniProt P05364); assay: biochemical; format: biochemical
Sequence of purified class A, C and D enzymes (β-lactamases) (Enterobacter cloacae, UniProt P05364) (P05364 21-381): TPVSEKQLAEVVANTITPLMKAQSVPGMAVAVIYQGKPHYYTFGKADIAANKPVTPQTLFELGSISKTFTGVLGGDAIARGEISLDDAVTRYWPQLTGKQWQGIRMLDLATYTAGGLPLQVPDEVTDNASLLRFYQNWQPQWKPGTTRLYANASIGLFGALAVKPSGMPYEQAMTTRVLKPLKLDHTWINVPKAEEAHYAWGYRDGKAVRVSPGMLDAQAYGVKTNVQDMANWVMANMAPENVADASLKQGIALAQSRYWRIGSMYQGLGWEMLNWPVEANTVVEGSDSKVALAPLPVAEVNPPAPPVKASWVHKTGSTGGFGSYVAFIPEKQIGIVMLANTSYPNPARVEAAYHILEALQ

[7] = biological target: purified class A, C and D enzymes (β-lactamases) (Escherichia coli, UniProt Q9L5C7); assay: biochemical; format: biochemical; conditions: purified CTX-M-14; nitrocefin (NCF) as reporter substrate
Sequence of purified class A, C and D enzymes (β-lactamases) (Escherichia coli, UniProt Q9L5C7) (Q9L5C7 entry or part of it): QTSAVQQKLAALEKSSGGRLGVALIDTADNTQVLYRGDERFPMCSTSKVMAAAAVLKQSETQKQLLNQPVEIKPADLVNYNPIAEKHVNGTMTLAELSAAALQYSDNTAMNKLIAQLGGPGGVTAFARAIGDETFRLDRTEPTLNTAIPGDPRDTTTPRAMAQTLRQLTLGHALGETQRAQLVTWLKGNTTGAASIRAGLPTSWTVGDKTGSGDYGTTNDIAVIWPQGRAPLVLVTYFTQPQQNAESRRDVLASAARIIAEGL

[8] = biological target: purified class A, C and D enzymes (β-lactamases) (Klebsiella pneumoniae, UniProt Q6XEC0); assay: biochemical; format: biochemical; conditions: purified OXA-48; nitrocefin (NCF) as reporter substrate
[9] = biological target: purified class A, C and D enzymes (β-lactamases) (Klebsiella pneumoniae, UniProt Q9F663); assay: biochemical; format: biochemical; conditions: purified KPC-2; nitrocefin (NCF) as reporter substrate
[10] = biological target: T2, purified class A, C and D enzymes (β-lactamases) (Pseudomonas aeruginosa, UniProt P24735); assay: biochemical; format: biochemical
T2 construct: rows headed: Ki (Pa-AmpC, NCF), uM; other: purified Pa-AmpC; nitrocefin (NCF) as reporter substrate
T2 sequence (P24735 whole entry): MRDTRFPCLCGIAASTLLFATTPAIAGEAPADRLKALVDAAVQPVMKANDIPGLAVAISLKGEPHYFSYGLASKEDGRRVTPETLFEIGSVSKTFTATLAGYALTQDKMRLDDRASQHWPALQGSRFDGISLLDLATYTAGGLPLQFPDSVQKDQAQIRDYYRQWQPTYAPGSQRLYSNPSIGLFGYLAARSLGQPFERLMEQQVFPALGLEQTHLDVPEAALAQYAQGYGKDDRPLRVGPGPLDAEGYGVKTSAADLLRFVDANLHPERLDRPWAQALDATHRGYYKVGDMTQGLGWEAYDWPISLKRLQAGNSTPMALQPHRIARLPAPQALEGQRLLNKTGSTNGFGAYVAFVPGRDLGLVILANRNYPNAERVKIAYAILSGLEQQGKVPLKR

[11] = biological target: T3, purified class A, C and D enzymes (β-lactamases) (UniProt P0AD64, L31Q/G234S/E235K, species not given); assay: biochemical; format: biochemical
T3 construct: Ki (SHV-12, NCF), uM; other: purified SHV-12; nitrocefin (NCF) as reporter substrate
T3 sequence (P0AD64 1-286 L31Q/G234S/E235K): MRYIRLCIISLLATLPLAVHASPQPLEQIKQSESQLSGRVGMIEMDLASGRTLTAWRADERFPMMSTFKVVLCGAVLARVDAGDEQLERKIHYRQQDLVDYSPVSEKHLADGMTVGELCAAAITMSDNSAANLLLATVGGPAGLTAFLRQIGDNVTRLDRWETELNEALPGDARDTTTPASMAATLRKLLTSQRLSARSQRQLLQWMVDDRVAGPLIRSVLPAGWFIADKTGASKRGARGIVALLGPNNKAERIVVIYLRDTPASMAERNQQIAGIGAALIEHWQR

[12] = system: ECL1002; assay: Aztreonam potentiation (MPC@4), strain ECL1002; conditions: minimum BLI concentration inhibiting growth with aztreonam 4 μg/mL; tested up to 40 μg/mL
[13] = system: ec308 SHV-5; assay: Aztreonam potentiation (MPC@4), strain ec308 SHV-5; conditions: minimum BLI concentration inhibiting growth with aztreonam 4 μg/mL; tested up to 40 μg/mL
[14] = system: ec302 TEM-10; assay: Aztreonam potentiation (MPC@4), strain ec302 TEM-10; conditions: minimum BLI concentration inhibiting growth with aztreonam 4 μg/mL; tested up to 40 μg/mL
[15] = system: KP1004 KPC-2; assay: Aztreonam potentiation (MPC@4), strain KP1004 KPC-2; conditions: minimum BLI concentration inhibiting growth with aztreonam 4 μg/mL; tested up to 40 μg/mL
[16] = system: EC1010 CMY-6; assay: Aztreonam potentiation (MPC@4), strain EC1010 CMY-6; conditions: minimum BLI concentration inhibiting growth with aztreonam 4 μg/mL; tested up to 40 μg/mL
[17] = system: KP1010 SHV-12; assay: Aztreonam potentiation (MPC@4), strain KP1010 SHV-12; conditions: minimum BLI concentration inhibiting growth with aztreonam 4 μg/mL; tested up to 40 μg/mL
[18] = system: KP1009 CTX-M-15; assay: Aztreonam potentiation (MPC@4), strain KP1009 CTX-M-15; conditions: minimum BLI concentration inhibiting growth with aztreonam 4 μg/mL; tested up to 40 μg/mL
[19] = system: KP1005 CTX-M-14; assay: Tigemonam potentiation (MPC@4), strain KP1005 CTX-M-14; conditions: minimum BLI concentration inhibiting growth with tigemonam 4 μg/mL; tested up to 40 μg/mL
[20] = read-out: Ki (SHV-12, NCF); purified SHV-12; nitrocefin (NCF) as reporter substrate

## C[C@H]1Cc2cccc(C(=O)O)c2O[B-]1(O)O [Compound 9, Disodium; (3S)-4,4-dihydroxy-3-methy-5-oxa-4-boranuidabicyclo[4.4.0]deca-1(6),7,9-triene-7-carboxylate]
[1]
  BPM MPC1 KP1004 KPC-2: X (X = MPC@1 ≤ 5 μg/mL)
[2]
  BPM MPC1 OXA-48 KP1086: X (X = MPC@1 ≤ 5 μg/mL)
[3]
  MPM MPC8 AB1053 OXA-72: Z (Z = MPC@1 > 20 μg/mL)
[4]
  MPM MPC8 AB1054 OXA-23: Z (Z = MPC@1 > 20 μg/mL)
[5]
  pKi: 6.00 to 7.00
[6]; purified P99, nitrocefin (NCF) as reporter substrate
  Ki (P99, NCF), uM: X (X = Ki ≤ 0.1 μM)
[7]
  Ki (CTX-M-14, NCF), uM: X (X = Ki ≤ 0.1 μM)
[8]
  Ki (OXA-48, NCF), uM: X (X = Ki ≤ 0.1 μM)
[9]
  Ki (KPC-2, NCF), uM: X (X = Ki ≤ 0.1 μM)
[10]; purified Pa-AmpC, nitrocefin (NCF) as reporter substrate, read-out: Ki (Pa-AmpC, NCF)
  pKi: > 7.00
[11]; purified SHV-12; nitrocefin (NCF) as reporter substrate; read-out: Ki (SHV-12, NCF)
  pKi: 6.00 to 7.00
[12]
  AZT MPC4 ECL1002: Y (Y = 5 μg/mL < MPC@4 ≤ 20 μg/mL)
[13]
  AZT MPC4 SHV-5 ec308: Y (Y = 5 μg/mL < MPC@4 ≤ 20 μg/mL)
[14]
  AZT MPC4 TEM-10 ec302: Z (Z = MPC@4 > 20 μg/mL)
[15]
  AZT MPC4 KPC-2 KP1004: X (X = MPC@4 ≤ 5 μg/mL)
[16]
  AZT MPC4 CMY-6 EC1010: Y (Y = 5 μg/mL < MPC@4 ≤ 20 μg/mL)
[17]
  AZT MPC4 SHV-12 KP1010: Y (Y = 5 μg/mL < MPC@4 ≤ 20 μg/mL)
[18]
  AZT MPC4 CTX-M-15 KP1009: Z (Z = MPC@4 > 20 μg/mL)
[19]
  TIG MPC4 CTX-M-14 KP1005: Z (Z = MPC@4 > 20 μg/mL)

## C[C@@H]1Cc2cccc(C(=O)[O-])c2O[B-]1(O)O.[Na+].[Na+] [Compound 10, Disodium; (3R)-4,4-dihydroxy-3-methyl-5-oxa-4-boranuidabicyclo[4.4.0]deca-1(6),7,9-triene-7-carboxylate]
[1]
  BPM MPC1 KP1004 KPC-2: X (X = MPC@1 ≤ 5 μg/mL)
[2]
  BPM MPC1 OXA-48 KP1086: Y (Y = 5 μg/mL < MPC@1 ≤ 20 μg/mL)
[3]
  MPM MPC8 AB1053 OXA-72: Z (Z = MPC@1 > 20 μg/mL)
[4]
  MPM MPC8 AB1054 OXA-23: Z (Z = MPC@1 > 20 μg/mL)
[5]
  pKi: < 6.00
[6]
  Ki (P99, NCF), uM: Y (key: X = Ki ≤ 0.1 μM; Y = 0.1 μM < Ki ≤ 1 μM; Z = Ki > 1 μM)
[7]
  Ki (CTX-M-14, NCF), uM: X (X = Ki ≤ 0.1 μM)
[8]
  Ki (OXA-48, NCF), uM: X (X = Ki ≤ 0.1 μM)
[9]
  Ki (KPC-2, NCF), uM: X (X = Ki ≤ 0.1 μM)
[10]
  pKi: > 7.00
[11]; [20]
  pKi: 6.00 to 7.00
[12]
  AZT MPC4 ECL1002: Z (Z = MPC@4 > 20 μg/mL)
[13]
  AZT MPC4 SHV-5 ec308: Z (Z = MPC@4 > 20 μg/mL)
[14]
  AZT MPC4 TEM-10 ec302: Z (Z = MPC@4 > 20 μg/mL)
[15]
  AZT MPC4 KPC-2 KP1004: Y (Y = 5 μg/mL < MPC@4 ≤ 20 μg/mL)
[16]
  AZT MPC4 CMY-6 EC1010: Z (Z = MPC@4 > 20 μg/mL)
[17]
  AZT MPC4 SHV-12 KP1010: Y (Y = 5 μg/mL < MPC@4 ≤ 20 μg/mL)
[18]
  AZT MPC4 CTX-M-15 KP1009: Z (Z = MPC@4 > 20 μg/mL)
[19]
  TIG MPC4 CTX-M-14 KP1005: Z (Z = MPC@4 > 20 μg/mL)

## O=C([O-])c1c(-c2ccn[nH]2)ccc2c1O[B-](O)(O)CC2.[Na+].[Na+] [Compound 15, Disodium; 4,4-dihydroxy-8-(1H-pyrazol-5-yl)-5-oxa-4-boranuidabicyclo[4.4.0]deca-1(6),7,9-triene-7-carboxylate]
[1]
  BPM MPC1 KP1004 KPC-2: X (X = MPC@1 ≤ 5 μg/mL)
[2]
  BPM MPC1 OXA-48 KP1086: X (X = MPC@1 ≤ 5 μg/mL)
[3]
  MPM MPC8 AB1053 OXA-72: X (X = MPC@1 ≤ 5 μg/mL)
[4]
  MPM MPC8 AB1054 OXA-23: X (X = MPC@1 ≤ 5 μg/mL)
[5]
  pKi: > 7.00
[6]
  Ki (P99, NCF), uM: X (key: X = Ki ≤ 0.1 μM; Y = 0.1 μM < Ki ≤ 1 μM; Z = Ki > 1 μM)
[7]
  Ki (CTX-M-14, NCF), uM: X (X = Ki ≤ 0.1 μM)
[8]
  Ki (OXA-48, NCF), uM: X (X = Ki ≤ 0.1 μM)
[9]
  Ki (KPC-2, NCF), uM: X (X = Ki ≤ 0.1 μM)
[10]
  pKi: > 7.00
[11]; [20]
  pKi: > 7.00
[12]
  AZT MPC4 ECL1002: X (X = MPC@4 ≤ 5 μg/mL)
[13]
  AZT MPC4 SHV-5 ec308: X (X = MPC@4 ≤ 5 μg/mL)
[14]
  AZT MPC4 TEM-10 ec302: X (X = MPC@4 ≤ 5 μg/mL)
[15]
  AZT MPC4 KPC-2 KP1004: X (X = MPC@4 ≤ 5 μg/mL)
[16]
  AZT MPC4 CMY-6 EC1010: X (X = MPC@4 ≤ 5 μg/mL)
[17]
  AZT MPC4 SHV-12 KP1010: X (X = MPC@4 ≤ 5 μg/mL)
[18]
  AZT MPC4 CTX-M-15 KP1009: X (X = MPC@4 ≤ 5 μg/mL)
[19]
  TIG MPC4 CTX-M-14 KP1005: Z (Z = MPC@4 > 20 μg/mL)

## NCCn1cc(-c2ccc3c(c2C(=O)O)O[B-](O)(O)CC3)nn1 [Compound 17, Disodium; 8-[1-(2-aminoethyl)triazol-4-yl]-4,4-dihydroxy-5-oxa-4-boranuidabicyclo[4.4.0]deca-1(6),7,9-triene-7-carboxylate]
[1]
  BPM MPC1 KP1004 KPC-2: X (X = MPC@1 ≤ 5 μg/mL)
[2]
  BPM MPC1 OXA-48 KP1086: X (X = MPC@1 ≤ 5 μg/mL)
[3]
  MPM MPC8 AB1053 OXA-72: X (X = MPC@1 ≤ 5 μg/mL)
[4]
  MPM MPC8 AB1054 OXA-23: X (X = MPC@1 ≤ 5 μg/mL)
[5]
  pKi: > 7.00
[6]
  Ki (P99, NCF), uM: Y (key: X = Ki ≤ 0.1 μM; Y = 0.1 μM < Ki ≤ 1 μM; Z = Ki > 1 μM)
[7]
  Ki (CTX-M-14, NCF), uM: X (X = Ki ≤ 0.1 μM)
[8]
  Ki (OXA-48, NCF), uM: X (X = Ki ≤ 0.1 μM)
[9]
  Ki (KPC-2, NCF), uM: X (X = Ki ≤ 0.1 μM)
[10]
  pKi: 6.00 to 7.00
[11]; [20]
  pKi: 6.00 to 7.00
[12]
  AZT MPC4 ECL1002: Z (Z = MPC@4 > 20 μg/mL)
[13]
  AZT MPC4 SHV-5 ec308: Z (Z = MPC@4 > 20 μg/mL)
[14]
  AZT MPC4 TEM-10 ec302: Z (Z = MPC@4 > 20 μg/mL)
[15]
  AZT MPC4 KPC-2 KP1004: X (X = MPC@4 ≤ 5 μg/mL)
[16]
  AZT MPC4 CMY-6 EC1010: Y (Y = 5 μg/mL < MPC@4 ≤ 20 μg/mL)
[17]
  AZT MPC4 SHV-12 KP1010: Y (Y = 5 μg/mL < MPC@4 ≤ 20 μg/mL)
[18]
  AZT MPC4 CTX-M-15 KP1009: Z (Z = MPC@4 > 20 μg/mL)
[19]
  TIG MPC4 CTX-M-14 KP1005: Z (Z = MPC@4 > 20 μg/mL)
